Assay results as given in ChEMBL document CHEMBL1135425, “Antitumor agents. 213. Modeling of epipodophyllotoxin derivatives using variable selection k nearest neighbor QSAR method” (J Med Chem, 2002).
“And” between values parts separate entries of the source, which are not always exact repeats. Equal entries are not always repeated.

How the values were obtained:
[1] = target: T1, DNA topoisomerase II (Homo sapiens) (UniProt P11388+Q02880); experiment: Percentage of intracellular covalent DNA-topoisomerase II complexes formed; format: cell-based
[2] = target: T1, DNA topoisomerase II (Homo sapiens); experiment: Ability to form intracellular covalent DNA topoisomerase II complex; activity expressed as the percentage of cellular protein-DNA complex formed (exp-1); format: cell-based
[3] = test system: Nucleic Acid; experiment: Ability to form intracellular covalent DNA topoisomerase II complex; activity expressed as the percentage of cellular protein-DNA complex formed (exp-2); format: functional, cell-based

| Complex formation [1] | Compound | other results |
| --- | --- | --- |
| 4% | COc1cc([C@@H]2c3cc(O)c(O)cc3[C@@H](Nc3cccc(O)c3)[C@H]3COC(=O)[C@H]23)cc(OC)c1OC |  |
| 179% and 186% | COc1cc([C@@H]2c3cc4c(cc3[C@@H](NCCCN(C)C)[C@H]3COC(=O)[C@H]23)OCO4)cc(OC)c1O |  |
| 137% | COc1cc([C@@H]2c3cc4c(cc3[C@@H](Nc3cccc(C#N)c3)[C@H]3COC(=O)[C@H]23)OCO4)cc(OC)c1O |  |
| 18% | COc1cc([C@@H]2c3cc(O)c(O)cc3[C@@H](Nc3cccc(O)c3)[C@H]3COC(=O)[C@H]23)cc(OC)c1O |  |
| 284% | COc1cc([C@@H]2c3cc4c(cc3[C@@H](NCc3ccc(C#N)cc3)[C@H]3COC(=O)[C@H]23)OCO4)cc(OC)c1O |  |
| 100% | COc1cc([C@@H]2c3cc4c(cc3[C@@H](Nc3ccc(NC(=O)c5cc([N+](=O)[O-])cn5C)cc3)[C@H]3COC(=O)[C@H]23)OCO4)cc(OC)c1O |  |
| 230% | COc1cc([C@@H]2c3cc4c(cc3[C@@H](Nc3cccc([N+](=O)[O-])c3)[C@H]3COC(=O)[C@H]23)OCO4)cc(OC)c1O |  |
| 96% | COc1ccc(NC2c3cc4c(cc3[C@@H](c3cc(O)c(O)c(OC)c3)[C@H]3C(=O)OC[C@H]23)OCO4)cc1 (some centres undefined) |  |
| 100% | COc1cc([C@@H]2c3cc4c(cc3[C@@H](O[C@@H]3O[C@@H]5CO[C@@H](C)O[C@H]5[C@H](O)[C@H]3O)[C@H]3COC(=O)[C@H]23)OCO4)cc(OC)c1O |  |
| 120% | COc1cc([C@@H]2c3cc4c(cc3[C@@H](NC(=O)c3ccc(N)cc3)[C@H]3COC(=O)[C@H]23)OCO4)cc(OC)c1O |  |
| 11% | COc1cc([C@@H]2c3cc4c(cc3[C@@H](Nc3cc(N)ccc3O)[C@H]3COC(=O)[C@H]23)OCO4)cc(OC)c1O |  |
| 77% | COc1cc([C@@H]2c3cc4c(cc3C(Nc3ccc(Cl)cc3)[C@H]3COC(=O)[C@H]23)OCO4)cc(O)c1O (some centres undefined) |  |
| 83% | COC(=O)c1cc(N[C@@H]2c3cc4c(cc3[C@@H](c3cc(OC)c(O)c(OC)c3)[C@H]3C(=O)OC[C@@H]32)OCO4)ccc1O |  |
| 183% and 203% | COc1cc([C@@H]2c3cc4c(cc3[C@@H](NCCN(C)C)[C@H]3COC(=O)[C@H]23)OCO4)cc(OC)c1O |  |
| 33% | COc1cc([C@@H]2c3cc(O)c(O)cc3C(Nc3ccc(C#N)cc3)[C@H]3COC(=O)[C@H]23)cc(OC)c1OC (some centres undefined) |  |
| 207% | CCOC(=O)c1ccc(N[C@@H]2c3cc4c(cc3[C@@H](c3cc(OC)c(O)c(OC)c3)[C@H]3C(=O)OC[C@@H]32)OCO4)cc1 |  |
| 97% | COc1cc([C@@H]2c3cc4c(cc3[C@@H](Nc3ccc(Oc5ccccc5)cc3)[C@H]3COC(=O)[C@H]23)OCO4)cc(OC)c1O |  |
| 23% | COc1cc([C@@H]2c3cc(O)c(O)cc3[C@@H](Nc3ccc([N+](=O)[O-])cc3)[C@H]3COC(=O)[C@H]23)cc(OC)c1OC |  |
| 175% | COC(=O)c1ccc(NC2c3cc4c(cc3[C@@H](c3cc(O)c(O)c(OC)c3)[C@H]3C(=O)OC[C@H]23)OCO4)cc1 (some centres undefined) |  |
| 6.1% | COc1cc([C@@H]2c3cc4c(cc3[C@@H](O[C@@H]3O[C@@H]5CO[C@@H](C)O[C@H]5[C@H](O)[C@H]3O)[C@H]3COC(=O)[C@H]23)OCO4)c(Cl)c(OC)c1O |  |
| 149% | COc1cc([C@@H]2c3cc4c(cc3[C@@H](NC(=O)c3cccc(N)c3)[C@H]3COC(=O)[C@H]23)OCO4)cc(OC)c1O |  |

| Complex formation [1] | Compound | other results |
| --- | --- | --- |
| 148% | COc1cc([C@@H]2c3cc4c(cc3[C@@H](Nc3cccnc3)[C@H]3COC(=O)[C@H]23)OCO4)cc(OC)c1O |  |
|  | COc1cc([C@@H]2c3cc4c(cc3C(Nc3ccccc3)[C@H]3COC(=O)[C@H]23)OCO4)cc(O)c1O (some centres undefined) | Complex formation [2]: 105%; Complex formation [3]: 128% |
| 4% | COc1cc([C@@H]2c3cc(O)c(O)cc3[C@@H](Nc3ccccc3)[C@H]3COC(=O)[C@H]23)cc(OC)c1O |  |
| 94% | COc1cc([C@@H]2c3cc4c(cc3[C@@H](OC(=O)c3ccccc3)[C@H]3COC(=O)[C@H]23)OCO4)cc(OC)c1O |  |
| 64% | COc1cc([C@@H]2c3cc4c(cc3[C@@H](Nc3ccc(I)cc3)[C@H]3COC(=O)[C@H]23)OCO4)cc(OC)c1O |  |
| 235% | COc1cc([C@@H]2c3cc4c(cc3[C@@H](Nc3cccc(CO)c3)[C@H]3COC(=O)[C@H]23)OCO4)cc(OC)c1O |  |
| 26% | COc1cc([C@@H]2c3cc4c(cc3[C@@H](Nc3ccc(NC(=O)c5cc(NC(=O)c6cc([N+](=O)[O-])cn6C)cn5C)cc3)[C@H]3COC(=O)[C@H]23)OCO4)cc(OC)c1O |  |
| 75% | COc1cc([C@@H]2c3cc4c(cc3C(Nc3cccc([N+](=O)[O-])c3)[C@H]3COC(=O)[C@H]23)OCO4)cc(O)c1O (some centres undefined) |  |
| 8% | COc1cc2c(cc1OC)[C@@H](Nc1ccc([N+](=O)[O-])cc1)[C@H]1COC(=O)[C@@H]1[C@@H]2c1cc(OC)c(OC)c(OC)c1 |  |
| 123% | COc1cc([C@@H]2c3cc4c(cc3[C@@H](Nc3cnc5ccccc5c3)[C@H]3COC(=O)[C@H]23)OCO4)cc(OC)c1O |  |
| 130% | COc1cc([C@@H]2c3cc4c(cc3[C@@H](NCc3cccc([N+](=O)[O-])c3)[C@H]3COC(=O)[C@H]23)OCO4)cc(OC)c1O |  |
| 109% | COc1cc([C@@H]2c3cc4c(cc3C(Nc3ccc(CC#N)cc3)[C@H]3COC(=O)[C@H]23)OCO4)cc(O)c1O (some centres undefined) |  |
| 109% | COc1cc([C@@H]2c3cc4c(cc3[C@@H](NC(C)C)[C@H]3COC(=O)[C@H]23)OCO4)cc(OC)c1O |  |
| 191% | COc1cc([C@@H]2c3cc4c(cc3[C@@H](NCc3cccc(N)c3)[C@H]3COC(=O)[C@H]23)OCO4)cc(OC)c1O |  |
| 129% | COC(=O)c1ccc(N[C@@H]2c3cc4c(cc3[C@@H](c3cc(OC)c(O)c(OC)c3)[C@H]3C(=O)OC[C@@H]32)OCO4)cc1O |  |
| 6.9% | COc1cc([C@@H]2c3cc4c(cc3[C@@H](Nc3ccc(C(=O)O)cc3)[C@H]3COC(=O)[C@H]23)OCO4)cc(OC)c1O |  |
| 89.2% | COc1cc([C@@H]2c3cc4c(cc3[C@@H](NCCCO)[C@H]3COC(=O)[C@H]23)OCO4)cc(OC)c1O |  |
| 94% | COc1cc([C@@H]2c3cc4c(cc3[C@@H](OC(=O)c3ccc(N)cc3)[C@H]3COC(=O)[C@H]23)OCO4)cc(OC)c1O |  |
| 1% | COC1=CC([C@@H]2c3cc4c(cc3C(NC(N=O)C(C)C)[C@H]3COC(=O)[C@H]23)OCO4)=CC(=O)C1(O)CC(C)=O (some centres undefined) |  |
| 144% | COc1cc([C@@H]2c3cc4c(cc3[C@@H](NCc3ccccc3[N+](=O)[O-])[C@H]3COC(=O)[C@H]23)OCO4)cc(OC)c1O |  |
| 15% | COc1cc([C@@H]2c3cc4c(cc3[C@@H](Nc3cc([N+](=O)[O-])ccc3O)[C@H]3COC(=O)[C@H]23)OCO4)cc(OC)c1O |  |

| Compound | Complex formation [1] | other results |
| --- | --- | --- |
| COc1cc([C@@H]2c3cc4c(cc3[C@@H](Nc3cccc(Br)c3)[C@H]3COC(=O)[C@H]23)OCO4)cc(OC)c1O | 62% |  |
| COc1cc([C@@H]2c3cc(O)c(O)cc3[C@@H](Nc3ccc([N+](=O)[O-])cc3)[C@H]3COC(=O)[C@H]23)cc(OC)c1O | 99% |  |
| COc1cc([C@@H]2c3cc4c(cc3[C@@H](NC(=O)c3ccc(OC(C)=O)cc3)[C@H]3COC(=O)[C@H]23)OCO4)cc(OC)c1O | 137% |  |
| COc1cc([C@@H]2c3cc4c(cc3[C@@H](Nc3ccccc3F)[C@H]3COC(=O)[C@H]23)OCO4)cc(OC)c1O | 121% |  |
| COc1cc([C@@H]2c3cc4c(cc3[C@@H](Nc3ccccc3Cl)[C@H]3COC(=O)[C@H]23)OCO4)cc(OC)c1O | 32% |  |
| COc1cc([C@@H]2c3cc4c(cc3C(Nc3ccc(F)cc3)[C@H]3COC(=O)[C@H]23)OCO4)cc(O)c1O (some centres undefined) | 117% |  |
| COc1cc([C@@H]2c3cc4c(cc3[C@@H](Nc3cc([N+](=O)[O-])cc([N+](=O)[O-])c3)[C@H]3COC(=O)[C@H]23)OCO4)cc(OC)c1O | 20% |  |
| COc1cc([C@@H]2c3cc4c(cc3[C@@H](Nc3ccc([N+](=O)[O-])cc3)[C@H]3COC(=O)[C@H]23)OCO4)cc(OC)c1O | 323% |  |
| COc1cc([C@@H]2c3cc4c(cc3[C@@H](NC(=O)c3ccc(F)cc3)[C@H]3COC(=O)[C@H]23)OCO4)cc(OC)c1O | 117% |  |
| COc1cc([C@@H]2c3cc4c(cc3[C@@H](NCCO)[C@H]3COC(=O)[C@H]23)OCO4)cc(OC)c1O | 121% |  |
| COc1cc([C@@H]2c3cc4c(cc3[C@@H](NCc3ccccc3F)[C@H]3COC(=O)[C@H]23)OCO4)cc(OC)c1O | 126% |  |
